Species: Rattus norvegicus
Assay type: toxicity, organism-based, Sprague-Dawley
Conditions: in vivo, sc, 24 h, route mini-PUMP - SUBCUTANEOUS, time 1 day, vehicle 100 % SALINE; for ABSOLUTE EOSINOPHIL / ABSOLUTE LYMPHOCYTE / ABSOLUTE MONOCYTE / ABSOLUTE SEGMENTED NEUTROPHIL / BASOPHIL / EOSINOPHIL / ERYTHROCYTE COUNT / HEMATOCRIT / HEMOGLOBIN / LEUKOCYTE COUNT / LYMPHOCYTE / MEAN CORPUSCULAR HEMOGLOBIN / MEAN CORPUSCULAR HEMOGLOBIN CONCENTRATION / MEAN CORPUSCULAR VOLUME / MONOCYTE / NEUTROPHIL / NUCLEATED RED BLOOD CELLS / PLATELET COUNT: tissue Blood; for ALANINE AMINOTRANSFERASE / ALBUMIN / ALKALINE PHOSPHATASE / ASPARTATE AMINOTRANSFERASE / BLOOD UREA NITROGEN / CARBON DIOXIDE / CHLORIDE / CHOLESTEROL / CREATININE / GLUCOSE / LACTATE DEHYDROGENASE / LIPASE / PHOSPHORUS / POTASSIUM / SODIUM / TOTAL BILIRUBIN / TOTAL PROTEIN / URIC ACID: tissue Plasma
[1] = 0 mg/kg, vehicle control, dose level Control

Description: DrugMatrix - Regimen: Single

`NC[C@H](O)c1ccc(O)c(O)c1` [NOREPINEPHRINE] was tested, and the “ABSOLUTE EOSINOPHIL” value [1] was 26.17 CELLS/uL, the “ABSOLUTE LYMPHOCYTE” value [1] was 10985.83 CELLS/uL and the “ABSOLUTE MONOCYTE” value [1] was 234.5 CELLS/uL. For the same molecule, the “ABSOLUTE SEGMENTED NEUTROPHIL” value [1] was 1753.5 CELLS/uL, the BASOPHIL [1] was 0% and the EOSINOPHIL [1] was 0.17%. The “ERYTHROCYTE COUNT” value [1] was 5.64 x10E6/uL, the HEMATOCRIT [1] was 34.52% and the HEMOGLOBIN [1] was 12.68 G/DL. The “LEUKOCYTE COUNT” value [1] was 13 x10E3/uL, the LYMPHOCYTE [1] was 84.5% and the “MEAN CORPUSCULAR HEMOGLOBIN” value [1] was 22.5 pg. The “MEAN CORPUSCULAR HEMOGLOBIN CONCENTRATION” value [1] was 36.78 G/DL, the “MEAN CORPUSCULAR VOLUME” value [1] was 61.18 fL and the MONOCYTE [1] was 1.83%. For the same molecule, the NEUTROPHIL [1] was 13.5%, the “NUCLEATED RED BLOOD CELLS” value [1] was 0.17 /100WBC and the “PLATELET COUNT” value [1] was 679.17 x10E3/uL. For the same molecule, the “ALANINE AMINOTRANSFERASE” value [1] was 42.67 u/L, the ALBUMIN [1] was 3.77 G/DL and the “ALKALINE PHOSPHATASE” value [1] was 291.17 u/L. The “ASPARTATE AMINOTRANSFERASE” value [1] was 74.5 u/L, the “BLOOD UREA NITROGEN” value [1] was 15.33 mg/dL and the “CARBON DIOXIDE” value [1] was 30 mmol/L. It also gave a CHLORIDE [1] of 100.83 MEQ/L, a CHOLESTEROL [1] of 65.33 mg/dL and a CREATININE [1] of 0.15 mg/dL. For the same molecule, the GLUCOSE [1] was 179.83 mg/dL, the “LACTATE DEHYDROGENASE” value [1] was 162.67 u/L and the LIPASE [1] was 8.5 u/L. The PHOSPHORUS [1] was 12.2 mg/dL, the POTASSIUM [1] was 5.73 MEQ/L and the SODIUM [1] was 144.7 MEQ/L. For the same molecule, the “TOTAL BILIRUBIN” value [1] was 0.15 mg/dL, the “TOTAL PROTEIN” value [1] was 5.87 G/DL and the “URIC ACID” value [1] was 1.93 mg/dL. The “ABSOLUTE EOSINOPHIL” value (1.75 mg/kg, dose level High) was 128.33 CELLS/uL, the “ABSOLUTE LYMPHOCYTE” value (1.75 mg/kg, dose level High) was 11603.67 CELLS/uL and the “ABSOLUTE MONOCYTE” value (1.75 mg/kg, dose level High) was 444.67 CELLS/uL. For the same molecule, the “ABSOLUTE SEGMENTED NEUTROPHIL” value (1.75 mg/kg, dose level High) was 3490 CELLS/uL, the BASOPHIL (1.75 mg/kg, dose level High) was 0% and the EOSINOPHIL (1.75 mg/kg, dose level High) was 1%. The “ERYTHROCYTE COUNT” value (1.75 mg/kg, dose level High) was 6.6 x10E6/uL, the HEMATOCRIT (1.75 mg/kg, dose level High) was 39.53% and the HEMOGLOBIN (1.75 mg/kg, dose level High) was 14.47 G/DL. For the same molecule, the “LEUKOCYTE COUNT” value (1.75 mg/kg, dose level High) was 15.67 x10E3/uL, the LYMPHOCYTE (1.75 mg/kg, dose level High) was 74% and the “MEAN CORPUSCULAR HEMOGLOBIN” value (1.75 mg/kg, dose level High) was 21.97 pg. The “MEAN CORPUSCULAR HEMOGLOBIN CONCENTRATION” value (1.75 mg/kg, dose level High) was 36.6 G/DL, the “MEAN CORPUSCULAR VOLUME” value (1.75 mg/kg, dose level High) was 60.07 fL and the MONOCYTE (1.75 mg/kg, dose level High) was 3%. The NEUTROPHIL (1.75 mg/kg, dose level High) was 22%, the “NUCLEATED RED BLOOD CELLS” value (1.75 mg/kg, dose level High) was 0 /100WBC and the “PLATELET COUNT” value (1.75 mg/kg, dose level High) was 1126 x10E3/uL. The “ALANINE AMINOTRANSFERASE” value (1.75 mg/kg, dose level High) was 33 u/L, the ALBUMIN (1.75 mg/kg, dose level High) was 4.03 G/DL and the “ALKALINE PHOSPHATASE” value (1.75 mg/kg, dose level High) was 413.33 u/L. For the same molecule, the “ASPARTATE AMINOTRANSFERASE” value (1.75 mg/kg, dose level High) was 77.33 u/L, the “BLOOD UREA NITROGEN” value (1.75 mg/kg, dose level High) was 10.33 mg/dL and the “CARBON DIOXIDE” value (1.75 mg/kg, dose level High) was 27.67 mmol/L. The CHLORIDE (1.75 mg/kg, dose level High) was 101 MEQ/L, the CHOLESTEROL (1.75 mg/kg, dose level High) was 102 mg/dL and the CREATININE (1.75 mg/kg, dose level High) was 0.12 mg/dL. For the same molecule, the GLUCOSE (1.75 mg/kg, dose level High) was 268 mg/dL, the “LACTATE DEHYDROGENASE” value (1.75 mg/kg, dose level High) was 247.67 u/L and the LIPASE (1.75 mg/kg, dose level High) was 9 u/L. The PHOSPHORUS (1.75 mg/kg, dose level High) was 14.8 mg/dL, the POTASSIUM (1.75 mg/kg, dose level High) was 6.26 MEQ/L and the SODIUM (1.75 mg/kg, dose level High) was 146.7 MEQ/L. For the same molecule, the “TOTAL BILIRUBIN” value (1.75 mg/kg, dose level High) was 0.13 mg/dL, the “TOTAL PROTEIN” value (1.75 mg/kg, dose level High) was 6.4 G/DL and the “URIC ACID” value (1.75 mg/kg, dose level High) was 3.1 mg/dL.

Source: ChEMBL document CHEMBL3885881, “DrugMatrix”
